The source of these data is paper PMC8479757 (Chemosphere, 2020).

Each structure is given as a SMILES string.

The target of data set [1] is bovine serum albumin (BSA) (Bos taurus, UniProt P02769). The data set is classed as binding. To be noted: 310 K; for critical [PFAS]:[BSA] ratio denoting the shift from binding site to surface adsorption: Δδ begins to plateau.
For data set [2] the following is noted: United States population, 2015–2016; cited from earlier work.
For data set [3] the following is noted: estimated; cited from earlier work.
For a further data set, the system named is HSA. To be noted: 310 K; cited from earlier work.

Sequence of bovine serum albumin (BSA) (P02769 25-607): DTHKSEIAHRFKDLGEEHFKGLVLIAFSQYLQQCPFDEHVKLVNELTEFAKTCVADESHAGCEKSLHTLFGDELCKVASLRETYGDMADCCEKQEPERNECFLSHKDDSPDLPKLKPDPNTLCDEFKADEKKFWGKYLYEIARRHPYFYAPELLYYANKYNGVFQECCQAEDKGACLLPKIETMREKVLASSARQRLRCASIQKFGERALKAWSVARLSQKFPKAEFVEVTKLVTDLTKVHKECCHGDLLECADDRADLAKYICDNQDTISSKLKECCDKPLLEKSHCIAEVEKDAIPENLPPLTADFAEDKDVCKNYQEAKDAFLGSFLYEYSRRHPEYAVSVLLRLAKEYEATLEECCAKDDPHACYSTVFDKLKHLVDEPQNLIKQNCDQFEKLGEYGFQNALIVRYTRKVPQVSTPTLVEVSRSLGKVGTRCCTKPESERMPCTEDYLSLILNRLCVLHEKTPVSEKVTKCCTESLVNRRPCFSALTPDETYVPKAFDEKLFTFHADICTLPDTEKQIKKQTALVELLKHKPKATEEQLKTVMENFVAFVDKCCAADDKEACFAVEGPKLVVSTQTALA

Broadly, the Kd is a measure of binding affinity in units of concentration. Read a low Kd as a tighter complex. For `O=C(O)C(F)(F)C(F)(F)C(F)(F)C(F)(F)C(F)(F)C(F)(F)C(F)(F)F` [PFOA, perfluorooctanoic acid], the “critical [PFAS]:[BSA] ratio denoting the shift from binding site to surface adsorption” value in data set [1] is recorded as 12–14. In data set [1] (Ka (ω, terminal −CF3 position), BSA, pH 7.4 PBS, Ka=Kd^−1), binding was characterised by a dissociation constant (Kd) of 6.45 µM. The average serum concentration in data set [2] was 1.56 µg/L.

For the molecule `O=S(=O)(O)C(F)(F)C(F)(F)C(F)(F)C(F)(F)C(F)(F)C(F)(F)F` [PFHxS, perfluorohexanesulfonic acid], the “critical [PFAS]:[BSA] ratio denoting the shift from binding site to surface adsorption” value in data set [1] was 12–14. For the same molecule, the average serum concentration in data set [2] is 0.577 µg/L.

With `O=C(O)C(F)(F)C(F)(F)C(F)(F)C(F)(F)C(F)(F)C(F)(F)C(F)(F)C(F)(F)F` [PFNA, perfluorononanoic acid], the “critical [PFAS]:[BSA] ratio denoting the shift from binding site to surface adsorption” value in data set [1] is 12–14. Further, the half-life in humans in data set [3] is on record as 2.5 years. Further, in data set [2], the average serum concentration was 1.18 µg/L.

`CCCCCCCCCC(=O)O` [decanoic acid]: the “Ka for binding to HSA” value with HSA was 100 mM⁻¹.

On to `CCCCCC(=O)O` [hexanoic acid], for which, in the data set with HSA, the “Ka for binding to HSA” value was 15 mM⁻¹.

In the case of `CCCCCCCC(=O)O` [octanoic acid], the “Ka for binding to HSA” value in the data set on HSA is 34 mM⁻¹.

Take `O=S(=O)(O)C(F)(F)C(F)(F)C(F)(F)C(F)(F)C(F)(F)C(F)(F)C(F)(F)C(F)(F)F` [PFOS, perfluorooctanesulfonic acid]: the “Ka (ω, terminal −CF3 position)” value in data set [1] (BSA, pH 7.4 PBS, Ka=Kd^−1) is 357 mM⁻¹. In addition, the half-life in humans in data set [3] was 5.4 years. Besides, the average serum concentration in data set [2] was 4.72 µg/L.
